How the values were obtained:
[1] = Tested for the ability to inhibit antennal esterases of Spodoptera littoralis with pre-incubation
Spodoptera littoralis = test: Tested for its ability to inhibit antennal esterases of Spodoptera littoralis without pre-incubation at 63 uM concentration
[2] = Compound was tested for competitive inhibition of antennal esterases of Spodoptera littoralis
[3] = Tested for its ability to inhibit antennal esterases of Spodoptera littoralis without pre-incubation

Row | SMILES | IC50 [1] | inhibition (Spodoptera littoralis) | Ki [2] | IC50 [3]
1 | CCCCCCCCCCC(=O)C(F)(F)F | 19.3 µM |  |  | 
2 | O=C(c1ccccc1)C(F)(F)F | 40.7 µM | 31% |  | 
3 | O=C(CCc1ccccc1)C(F)(F)F |  | 43% |  | 
4 | CCCCCCCCCCCCC(=O)C(F)(F)F | 1.16 µM |  | 29.8 µM | 10.6 µM
5 | CCCCCCCCCCCCCCCCC(=O)C(F)(F)F |  | 50% |  | 

Results, then the molecule that gave them:

Row | IC50 [1] | inhibition (Spodoptera littoralis) | Ki [2] | IC50 [3] | SMILES
6 | 18.4 µM |  |  |  | CCCCCCCCCCCCCCC(=O)C(F)(F)F
7 | 0.55 µM |  | 25.1 µM | 3.7 µM | CCCCCCCCSCC(=O)C(F)(F)F
8 |  | 36% |  |  | O=C(Cc1ccccc1)C(F)(F)F
9 |  | 44% |  |  | CCCCCCCCCCCCCCCCCC(=O)C(F)(F)F
10 |  | 38% |  |  | O=C(c1cccc2ccccc12)C(F)(F)F
11 | 4.4 µM |  |  | 11 µM | CCCCCCCCCCCCCC(=O)C(F)(F)F
12 | 11.4 µM |  | 249 µM | 7.9 µM | O=C(c1ccc2ccccc2c1)C(F)(F)F
